Experimental data reported in paper PMC6309140, “Synthesis and Evaluation of a New Type of Small Molecule Epigenetic Modulator Containing Imidazo[1,2-b][1,2,4]triazole Motif” (Frontiers in Chemistry, 2018).
“Also recorded” adds a separate entry of the source. Read-outs that look alike come from different tables or passages of the source.

Key:
[1] = test system: EGFP reporter gene silenced by DNA methylation (B2-17 cells); test: Compound effective assay: derepression of EGFP reporter in B2-17 reporter cells (image-based, titration); format: cell-based; conditions: for Emax: 72 h, read-out: Maximal RGFP% (maximal percentage of EGFP+ cells in the dose-response curve); for EC50: dose-response of EGFP+ cells, read-out: EC50 (relative half maximal effect concentration); for activity of derepressing the EGFP reporter gene silenced by DNA methylation (in words): compared with hit compound LX-3
Source text: (§1) To identify novel small molecules targeting gene repression, we devised an image-based high-throughput screening system using the engineered HEK 293 F cell (termed as B2-17 cells) as report cell line. A chemical library containing 308,251 small molecules was screened in this system. Purposed for unbiased compound screening, this library had been used in a variety of studies (Sun et al., [2012]; Wang et al., [2013]; Dong et al., [2015]; Li et al., [2016]). Hundred and fifty eight compounds which reactivated reporter genes in more than half of cells were selected as hits. Next, we performed titration experiments for all these hits in the B2-17 cell line. The efficacy of each compound was evaluated by its maximal percentage of EGFP^+ cells in the dose-response curve (maximal RGFP) and relative half maximal effect concentration (EC50). The toxicity of the hits was also tested in parallel, measured by number of viable cells in each treatment. The assay is based on quantitative analysis of ATP, an indicator of metabolically active cells. For each compound, we calculated the relative half maximal growth inhibitory concentration (IC50), based on the abovementioned assay.
Procedure for cell culture and establishment of the reporter cell line were reported in our previously published paper (Li et al., [2018]).
Before plating cells, 384-well plates (ViewPlate, PerkinElmer) were coated with PDL (poly-D-lysine, Sigma). For each well, 1,300 B2-17 cells were plated by using a Matrix Wellmate microplate dispenser (Thermo Scientific). Then, 0.25 μL of compound was added to each well by using a versatile pipetting robot, the Biomek FX workstation (Beckman Coulter), to give a final compound concentration of 5 μM. After treatment for 72 h, the cell nuclei were stained by Hoechst 33342 (Sigma) before imaging.
The cells were imaged with Opera LX (PerkinElmer, three views per well by using 10 x (air) objective lens). Images were analyzed with the Columbus system, the mean percentage of EGFP+ cells (RGFP) was obtained to extrapolate the number of EGFP expressing cells and Hoechst-stained nuclei.
For the titration assay, the positive compounds were diluted in DMSO at concentrations ranging from 0.625 to 4 mM. Then, the B2-17 cells were treated by gradient compound and imaged as described before.
For each compound, a dose-response series was generated by using Origin 6.0 Pro software. The dot plot was fit by a DoseResp curve and then the EC50 was calculated.

HEK 293 F cells = test: Viability assays (CellTiter-Glo, ATP); format: cell-based; conditions: for IC50: viable cells by ATP quantitation, 3 days incubation, Figure 2 says B2-17 cells, method says HEK 293 F cells, read-out: IC50 (relative half maximal growth inhibitory concentration)
Source text: as §1
HEK 293 F cells were plated in 384-well, flat-bottom, tissue culture dishes (Corning) and treated with compounds, incubated 3 days, and assayed for viability using the CellTiter-Glo Luminescent Cell Viability Assay (Promega) according to the manufacturer's protocol. The […] with an EnSight plate reader (Perkin Elmer). Data were normalized to the untreated control (100% viability). Each treatment was tested in two independent assays, each containing 3 replicates. The titration-viability curves of each compound were also generated by using Origin 6.0 Pro software.

| Molecule | Emax ([1]; B2-17 cells, 72 h treatment) [%] | EC50 ([1]; B2-17 cells, 72 h treatment) [µM] | activity of derepressing the EGFP reporter gene silenced by DNA methylation (in words) [1] | IC50 (HEK 293 F cells; HEK293F, 72 h) [µM] | Maximal RGFP% (maximal percentage of EGFP+ cells in the dose-response curve) ([1]; B2-17 cells, 72 h treatment) [%] | IC50 (HEK 293 F cells) [µM] | toxicity (in words) (HEK 293 F cells; compared with hit compound LX-3) |
| --- | --- | --- | --- | --- | --- | --- | --- |
| O=C(Cn1c2ccccc2n2nc(-c3cccs3)nc12)c1ccc(C(F)(F)F)cc1 [7e, 2-(2-(thiophen-2-yl)-4H-benzo[4,5]imidazo[1,2-b][1,2,4]triazol-4-yl)-1-(4-(trifluoromethyl)phenyl)ethan-1-one] | 81 | 3.7 | remained the same | 4.7 | – | – | – |
| COc1ccc(C(=O)Cn2c3ccccc3n3nc(-c4cccs4)nc23)cc1 [7b, 1-(4-methoxyphenyl)-2-(2-(thiophen-2-yl)-4H-benzo[4,5]imidazo[1,2-b][1,2,4]triazol-4-yl)ethan-1-one] | 23 | 6.2 | decreased to some extent | 3.1 | – | – | – |
| O=C(O)c1ccc(C(=O)Cn2c3ccccc3n3nc(-c4cccs4)nc23)cc1 [7j, 4-(2-(2-(thiophen-2-yl)-4H-benzo[4,5]imidazo[1,2-b][1,2,4]triazol-4-yl)acetyl)benzoic acid] | 7 | – | decreased to some extent | 4.8 | – | – | – |
| O=C(Cn1c2ccccc2n2nc(-c3cccs3)nc12)c1ccc([N+](=O)[O-])cc1 [7c, 1-(4-nitrophenyl)-2-(2-(thiophen-2-yl)-4H-benzo[4,5]imidazo[1,2-b][1,2,4]triazol-4-yl)ethan-1-one] | 41 | 14.9 | decreased to some extent | 11.9 | – | – | – |
| O=C(Cn1c2ccccc2n2nc(-c3cccs3)nc12)c1ccc(F)cc1F [7f, 1-(2,4-difluorophenyl)-2-(2-(thiophen-2-yl)-4H-benzo[4,5]imidazo[1,2-b][1,2,4]triazol-4-yl)ethan-1-one] | 16 | – | significantly decreased | 17.8 | – | – | – |
| 2-(4-bromophenyl)-1-(2-(thiazol-2-yl)-4H-benzo[4,5] imidazo[1,2-b][1,2,4]triazol-4-yl)ethan-1-one [31b] | – | – | loss of activity | – | 6.0 | 11.5 | – |
| Cc1cc(NC(=O)CSc2nc3ccc(Br)cc3c3nc4ccccc4n23)no1 [LX-6] | 71 | 4.2 | – | 5 | – | – | – |
| COC(=O)c1ccc(C(=O)Cn2c3ccccc3n3nc(-c4cccs4)nc23)cc1 [7d, methyl 4-(2-(2-(thiophen-2-yl)-4H-benzo[4,5]imidazo[1,2-b][1,2,4]triazol-4-yl)acetyl)benzoate] | 73 | 2.4 | significantly increased; also recorded: slightly better activity | 10.2 | – | – | less toxicity |
| Cc1ccsc1-c1nc2n(CC(=O)c3ccc(Br)cc3)c3ccccc3n2n1 [22d, 1-(4-bromophenyl)-2-(2-(3-methylthiophen-2-yl)-4H-benzo[4,5]imidazo[1,2-b][1,2,4]triazol-4-yl)ethan-1-one] | 19 | – | disappeared | 12.3 | – | – | – |
| N#Cc1ccc(-c2nc3n(CC(=O)c4ccc(Br)cc4)c4ccccc4n3n2)s1 [compound 27, 5-(4-(2-(4-bromophenyl)-2-oxoethyl)-4H-benzo[4,5]imidazo[1,2-b][1,2,4]triazol-2-yl)thiophene-2-carbonitrile] | 6 | – | significant decrease or disappearance | – | – | – | – |
| O=C(Cn1c2ccccc2n2nc(-c3cccs3)nc12)c1ccco1 [9b, 1-(furan-2-yl)-2-(2-(thiophen-2-yl)-4H-benzo[4,5]imidazo[1,2-b][1,2,4]triazol-4-yl)ethan-1-one] | 6.6 | – | – | – | – | – | – |
| CC(C)(C)c1nc2n(CC(=O)c3ccc(Br)cc3)c3ccccc3n2n1 [22g, 1-(4-bromophenyl)-2-(2-(tert-butyl)-4H-benzo[4,5]imidazo[1,2-b][1,2,4]triazol-4-yl)ethan-1-one] | – | – | – | 8.3 | – | – | – |
